PubChem BioAssay (NCI)
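Assay format: 96-well plates, 48-hour exposure. GI50 marks 50% less growth. Definition used: TGI = concentration required for complete inhibition of growth.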

Key:
Experiment in all cases: inhibition of tumour cell growth, NCI panel, 48 h
IGROV1 ovarian = tested on: IGROV1 ovarian
MDA-MB-231 breast = tested on: MDA-MB-231 breast
UO-31 renal = tested on: UO-31 renal
NCI-H522 lung = tested on: NCI-H522 lung
ACHN renal = tested on: ACHN renal
RPMI-8226 leukemia = tested on: RPMI-8226 leukemia
SK-OV-3 ovarian = tested on: SK-OV-3 ovarian
HL-60(TB) leukemia = tested on: HL-60(TB) leukemia
A498 renal = tested on: A498 renal
HCT-116 colon = tested on: HCT-116 colon
HOP-92 NSCLC = tested on: HOP-92 NSCLC
MALME-3M melanoma = tested on: MALME-3M melanoma
SF-295 CNS = tested on: SF-295 CNS
SK-MEL-2 melanoma = tested on: SK-MEL-2 melanoma
M14 melanoma = tested on: M14 melanoma
NCI-H23 lung = tested on: NCI-H23 lung
BT-549 breast = tested on: BT-549 breast
DU-145 prostate = tested on: DU-145 prostate
HCC-2998 colon = tested on: HCC-2998 colon
OVCAR-8 ovarian = tested on: OVCAR-8 ovarian
SW-620 colon = tested on: SW-620 colon
CAKI-1 renal = tested on: CAKI-1 renal
KM12 colon = tested on: KM12 colon
HS 578T breast = tested on: HS 578T breast
T-47D breast = tested on: T-47D breast
COLO 205 colon = tested on: COLO 205 colon
K-562 leukemia = tested on: K-562 leukemia
SK-MEL-28 melanoma = tested on: SK-MEL-28 melanoma
HT29 colon = tested on: HT29 colon
OVCAR-3 ovarian = tested on: OVCAR-3 ovarian
786-0 renal = tested on: 786-0 renal
LOX IMVI melanoma = tested on: LOX IMVI melanoma
SF-539 CNS = tested on: SF-539 CNS
PC-3 prostate = tested on: PC-3 prostate
NCI-H226 lung = tested on: NCI-H226 lung
UACC-62 melanoma = tested on: UACC-62 melanoma
SN12C renal = tested on: SN12C renal
A549 NSCLC = tested on: A549 NSCLC
RXF 393 renal = tested on: RXF 393 renal
TK-10 renal = tested on: TK-10 renal
SNB-75 CNS = tested on: SNB-75 CNS
NCI/ADR-RES ovarian = tested on: NCI/ADR-RES ovarian
SNB-19 CNS = tested on: SNB-19 CNS
HCT-15 colon = tested on: HCT-15 colon
OVCAR-5 ovarian = tested on: OVCAR-5 ovarian
MCF7 breast = tested on: MCF7 breast
SF-268 CNS = tested on: SF-268 CNS
CCRF-CEM leukemia = tested on: CCRF-CEM leukemia
EKVX NSCLC = tested on: EKVX NSCLC
MDA-MB-435 = tested on: MDA-MB-435
UACC-257 melanoma = tested on: UACC-257 melanoma
SK-MEL-5 melanoma = tested on: SK-MEL-5 melanoma
OVCAR-4 ovarian = tested on: OVCAR-4 ovarian
SR leukemia = tested on: SR leukemia
NCI-H460 lung = tested on: NCI-H460 lung
U251 CNS = tested on: U251 CNS
HOP-62 NSCLC = tested on: HOP-62 NSCLC
MOLT-4 leukemia = tested on: MOLT-4 leukemia

For `O=c1nc(Nc2ccc([N+](=O)[O-])cc2O)sc2ccccc12`, the GI50 (IGROV1 ovarian) was 1.11 µM, the TGI (IGROV1 ovarian) was over 16.7 µM and the GI50 (MDA-MB-231 breast) was 7.41 µM. It also gave a TGI (MDA-MB-231 breast) of over 16.7 µM, a GI50 (UO-31 renal) of 0.853 µM and a TGI (UO-31 renal) of over 16.7 µM. For the same molecule, the GI50 (NCI-H522 lung) was 0.786 µM, the TGI (NCI-H522 lung) was 10.4 µM and the GI50 (ACHN renal) was 2.16 µM. The TGI (ACHN renal) was over 16.7 µM, the GI50 (RPMI-8226 leukemia) was 0.737 µM and the TGI (RPMI-8226 leukemia) was 10.8 µM. The GI50 (SK-OV-3 ovarian) was 1.31 µM, the TGI (SK-OV-3 ovarian) was over 16.7 µM and the GI50 (HL-60(TB) leukemia) was 0.662 µM. For the same molecule, the TGI (HL-60(TB) leukemia) was 3.69 µM, the GI50 (A498 renal) was 0.574 µM and the TGI (A498 renal) was 2.3 µM. For the same molecule, the GI50 (HCT-116 colon) was 0.882 µM, the TGI (HCT-116 colon) was over 16.7 µM and the GI50 (HOP-92 NSCLC) was 2.3 µM. The TGI (HOP-92 NSCLC) was 15.9 µM, the GI50 (MALME-3M melanoma) was 4.09 µM and the TGI (MALME-3M melanoma) was over 16.7 µM. For the same molecule, the GI50 (SF-295 CNS) was 1.11 µM, the TGI (SF-295 CNS) was over 16.7 µM and the GI50 (SK-MEL-2 melanoma) was 1.18 µM. It also gave a TGI (SK-MEL-2 melanoma) of over 16.7 µM, a GI50 (M14 melanoma) of 0.648 µM and a TGI (M14 melanoma) of over 16.7 µM. The GI50 (NCI-H23 lung) was 1.1 µM, the TGI (NCI-H23 lung) was over 16.7 µM and the GI50 (BT-549 breast) was 0.885 µM. For the same molecule, the TGI (BT-549 breast) was over 16.7 µM, the GI50 (DU-145 prostate) was 5.61 µM and the TGI (DU-145 prostate) was over 16.7 µM. For the same molecule, the GI50 (HCC-2998 colon) was 4.39 µM, the TGI (HCC-2998 colon) was over 16.7 µM and the GI50 (OVCAR-8 ovarian) was 3.83 µM. It also gave a TGI (OVCAR-8 ovarian) of over 16.7 µM, a GI50 (SW-620 colon) of 0.955 µM and a TGI (SW-620 colon) of over 16.7 µM. The GI50 (CAKI-1 renal) was 0.659 µM, the TGI (CAKI-1 renal) was over 16.7 µM and the GI50 (KM12 colon) was 1.04 µM. It also gave a TGI (KM12 colon) of over 16.7 µM, a GI50 (HS 578T breast) of 0.576 µM and a TGI (HS 578T breast) of over 16.7 µM. It also gave a GI50 (T-47D breast) of 4.3 µM, a TGI (T-47D breast) of over 16.7 µM and a GI50 (COLO 205 colon) of over 16.7 µM. For the same molecule, the TGI (COLO 205 colon) was over 16.7 µM, the GI50 (K-562 leukemia) was 0.557 µM and the TGI (K-562 leukemia) was over 16.7 µM. It also gave a GI50 (SK-MEL-28 melanoma) of 4.22 µM, a TGI (SK-MEL-28 melanoma) of over 16.7 µM and a GI50 (HT29 colon) of over 16.7 µM. The TGI (HT29 colon) was over 16.7 µM, the GI50 (OVCAR-3 ovarian) was 0.719 µM and the TGI (OVCAR-3 ovarian) was over 16.7 µM. It also gave a GI50 (786-0 renal) of 6.06 µM, a TGI (786-0 renal) of over 16.7 µM and a GI50 (LOX IMVI melanoma) of 1.14 µM. It also gave a TGI (LOX IMVI melanoma) of over 16.7 µM, a GI50 (SF-539 CNS) of 0.696 µM and a TGI (SF-539 CNS) of 8.94 µM. The GI50 (PC-3 prostate) was 4.92 µM, the TGI (PC-3 prostate) was over 16.7 µM and the GI50 (NCI-H226 lung) was 0.783 µM. The TGI (NCI-H226 lung) was over 16.7 µM, the GI50 (UACC-62 melanoma) was 0.88 µM and the TGI (UACC-62 melanoma) was over 16.7 µM. For the same molecule, the GI50 (SN12C renal) was 3.15 µM, the TGI (SN12C renal) was over 16.7 µM and the GI50 (A549 NSCLC) was 4.58 µM. It also gave a TGI (A549 NSCLC) of over 16.7 µM, a GI50 (RXF 393 renal) of 0.437 µM and a TGI (RXF 393 renal) of 2.33 µM. It also gave a GI50 (TK-10 renal) of over 16.7 µM, a TGI (TK-10 renal) of over 16.7 µM and a GI50 (SNB-75 CNS) of 0.307 µM. It also gave a TGI (SNB-75 CNS) of 1.2 µM, a GI50 (NCI/ADR-RES ovarian) of 0.532 µM and a TGI (NCI/ADR-RES ovarian) of 4.47 µM. The GI50 (SNB-19 CNS) was 0.949 µM, the TGI (SNB-19 CNS) was over 16.7 µM and the GI50 (HCT-15 colon) was 0.756 µM. For the same molecule, the TGI (HCT-15 colon) was over 16.7 µM, the GI50 (OVCAR-5 ovarian) was 9.42 µM and the TGI (OVCAR-5 ovarian) was over 16.7 µM. It also gave a GI50 (MCF7 breast) of 0.637 µM, a TGI (MCF7 breast) of over 16.7 µM and a GI50 (SF-268 CNS) of 1.31 µM. It also gave a TGI (SF-268 CNS) of over 16.7 µM, a GI50 (CCRF-CEM leukemia) of 4.47 µM and a TGI (CCRF-CEM leukemia) of over 16.7 µM. It also gave a GI50 (EKVX NSCLC) of 4.05 µM, a TGI (EKVX NSCLC) of over 16.7 µM and a GI50 (MDA-MB-435) of 0.466 µM. The TGI (MDA-MB-435) was over 16.7 µM, the GI50 (UACC-257 melanoma) was 1.66 µM and the TGI (UACC-257 melanoma) was over 16.7 µM. For the same molecule, the GI50 (SK-MEL-5 melanoma) was 0.858 µM, the TGI (SK-MEL-5 melanoma) was 5.41 µM and the GI50 (OVCAR-4 ovarian) was 4.4 µM. It also gave a TGI (OVCAR-4 ovarian) of over 16.7 µM, a GI50 (SR leukemia) of 0.462 µM and a TGI (SR leukemia) of over 16.7 µM. It also gave a GI50 (NCI-H460 lung) of 0.67 µM, a TGI (NCI-H460 lung) of over 16.7 µM and a GI50 (U251 CNS) of 1.06 µM. It also gave a TGI (U251 CNS) of over 16.7 µM, a GI50 (HOP-62 NSCLC) of 0.917 µM and a TGI (HOP-62 NSCLC) of over 16.7 µM. The GI50 (MOLT-4 leukemia) was 3.73 µM and the TGI (MOLT-4 leukemia) was over 16.7 µM.
